Laboratory results published in patent US12297165B2, “Oligothioetheramides (oligoteas) as anti-microbial and anti-bacterial agents” (Cornell University, priority 2017, dated 2025).

Experiments:
Assay type in all cases: cell-based
[1] = system: bacterial membrane; experiment: Cytoplasmic permeability assay with propidium iodide, fluorescence microscopy; conditions: incubated with PI
Experimental: Membrane permeabilization propidium iodide (PI) assay: 1 mM BDT-4G stock solutions were prepared in DMSO. B. subtilis strains were streaked onto a Luria Broth (LB) agar plate and incubated overnight. One colony was selected and incubated in LB overnight, then subcultured and incubated until the OD600 measured between 0.5 and 0.6. Bacteria were harvested, washed, and resuspended in a solution of 5 mM HEPES, 5 mM glucose, and 10 μM propidium iodide. 150 μL bacteria solution was added to each well of a black 96 well plate. Fluorescence measurements were taken at 535 nm excitation, 617 nm emission on a TECAN Infinite M1000 PRO Microplate reader (Männdorf) (TECAN) for 2 minutes. BDT-4G stock solution was added for a concentration of 15 μg/mL, and fluorescence measurements were taken for an additional 20 minutes.
Membrane permeabilization dictates lytic potential. A cytoplasmic permeability assay was performed using propidium iodide (PI). PI is a cell impermeant intercalating agent that fluoresces when bound to nucleic acids. As such, PI can be used to identify cells with compromised membranes by measuring an increase in fluorescence above the baseline. This phenomenon was qualitatively confirmed by performing fluorescence microscopy studies incubated with PI with or without the AOTs. […]

[2] = system: cell membrane of methicillin resistant Staphylococcus aureus (MRSA); experiment: Membrane permeabilization propidium iodide (PI) assay, MRSA
[3] = system: Bacillus subtilis; experiment: Minimum inhibitory concentration (MIC) assay, B. subtilis
Experimental: (§1) Biological Assays: Minimum inhibitory concentration (MIC) assay: A single bacterial colony (Bacillus subtilis (B. subtilis) or methicillin-resistant Staphylococcus aureus (MRSA)) was selected and incubated in media (Luria Broth (LB) for B. subtilis or Tryptic Soy Broth (TSB) for MRSA) at 37° C. overnight. This was sub-cultured in media and incubated at 37° C. until the OD600 was approximately 0.5 (2.5-3.5-hour incubation). The subculture was diluted with media to an OD600 of 0.001. Diluted subculture and 1 mM stocks of compounds to be tested were added to a clear 96-well plate, and serially diluted by a factor of 0.5. The well plate was incubated overnight and the absorbance was measured at 600 nm using the TECAN. To determine the MIC in presence of serum, assays were repeated using media with 20% heat-inactivated mouse serum or 20% fetal bovine serum. […] The MIC50 was calculated using a 4PL sigmoidal nonlinear regression on Prism. The MIC100 was calculated as the first point below 10% of the maximum.
The MIC of PEG24-LL-PDT4G against B. subtilis was compared with the MIC of unmodified PDT-4G. Both compounds were pre-incubated with B. subtilis supernatant for 0, 4, or 24 hours before the MIC assay to test cleavage kinetics (FIG. 53).

[4] = system: community associated Staphylococcus aureus (strain USA300); experiment: Minimum inhibitory concentration (MIC) assay, S. aureus USA300
Experimental: as §1

[5] = system: E. coli; experiment: Minimum inhibitory concentration (MIC) assay, E. coli
[6] = system: methicillin resistant Staphylococcus aureus (MRSA) (ATCC 33591); experiment: Minimum inhibitory concentration (MIC) assay, MRSA
Experimental: as §1

[7] = system: Pseudomonas aeruginosa (PA-14, PA-1); experiment: MIC assay, Pseudomonas aeruginosa strains; conditions: Pseudomonas aeruginosa PA-14 and PA-1
From the text: PA-14 is a highly virulent Pseudomonas aeruginosa strain (Gram-negative) that is difficult to treat. PA-1 is a meropenem resistant clinical isolate of Pseudomonas aeruginosa that was obtained from a patient. Meropenem, vancomycin and polymyxin B are commercial antibiotics that are used as controls.

[8] = presence of elevated calcium and magnesium ions (25 mM)
[9] = normal (Tryptic Soy media) media
[10] = presence of elevated calcium and magnesium ions (25 mM) and presence of heat-inactivated fetal bovine serum

For `CN[C@H](CC(C)C)C(=O)N[C@H]1C(=O)N[C@@H](CC(N)=O)C(=O)N[C@H]2C(=O)N[C@H]3C(=O)N[C@H](C(=O)N[C@H](C(=O)O)c4cc(O)cc(O)c4-c4cc3ccc4O)[C@H](O)c3ccc(c(Cl)c3)Oc3cc2cc(c3O[C@@H]2O[C@H](CO)[C@@H](O)[C@H](O)[C@H]2O[C@H]2C[C@](C)(N)[C@H](O)[C@H](C)O2)Oc2ccc(cc2Cl)[C@H]1O` [Vancomycin], the “propidium iodide entry into cells (staining)” value [1] was “PI was unable to gain entry into cells” and the “membrane destabilization (diffusion of propidium iodide dye into the cell)” value [2] was “no membrane compromise”.

With `CCCCCCCCCC(=O)N[C@@H](Cc1c[nH]c2ccccc12)C(=O)N[C@H](CC(N)=O)C(=O)N[C@@H](CC(=O)O)C(=O)N[C@@H]1C(=O)NCC(=O)N[C@@H](CCCN)C(=O)N[C@@H](CC(=O)O)C(=O)N[C@H](C)C(=O)N[C@@H](CC(=O)O)C(=O)NCC(=O)N[C@H](CO)C(=O)N[C@@H]([C@H](C)CC(=O)O)C(=O)N[C@@H](CC(=O)c2ccccc2N)C(=O)O[C@@H]1C` [daptomycin] the “membrane destabilization (diffusion of propidium iodide dye into the cell)” value [2] was “no membrane compromise”.

In the case of `C=CCN(CCNC(=N)N)C(=O)CCSCCCCSCCCN(CCNC(=N)N)C(=O)CCSCCCCSCCCN(CCNC(=N)N)C(=O)CCSCCCCSCCCN(CCNC(=N)N)C(=O)CCSCCCCSCCCN(CCNC(=N)N)C(=O)CCSCCCCSCCCN` [BDT-5G], the “antibacterial activity (MIC100) against Bacillus subtilis” value ([3]; normal (LB media) media) is reported as “show activity”, the “antibacterial activity (MIC100) against Bacillus subtilis” value [3, 8] is reported as “maintain their antibacterial activity” and the “antibacterial activity (MIC100) against Staphylococcus aureus strain USA300” value [4, 9] is reported as “show activity”. The “antibacterial activity (MIC100) against Staphylococcus aureus strain USA300” value [4, 10] was “maintain their antibacterial activity”, the “antibacterial activity (MIC100) against E. coli” value ([5]; normal (LB media) media) was “show activity” and the “antibacterial activity (MIC100) against E. coli” value [5, 8] was “maintain their antibacterial activity”. The “antibacterial activity (MIC100) against MRSA” value [6, 9] was “show activity” and the “antibacterial activity (MIC100) against MRSA” value [6, 10] was “maintain their antibacterial activity”.

With `C=CCN(CCNC(=N)N)C(=O)CCSCCCSCCCN(CCNC(=N)N)C(=O)CCSCc1cccc(CSCCCN(CCNC(=N)N)C(=O)CCSCCCSCCCN)c1` [3GMG3G] the “activity relative to the para substituted compound (3GPG3G)” value [7] was 2-4 fold.
